Results from US20230277511A1, “RAPAMYCIN (RAPA) COMPOSITION AND PREPARATION METHOD THEREOF” (priority 2020, published 2023).

System: AS model mice (ApoE−/− mice)
Assay: Therapeutic effect on AS in AS model mice (plaque area)
Assay type: in vivo
Conditions: 1.5 mg/kg intraperitoneally every two days for 3 months, mean±SD, FIG. 10
Description: Animal: Apolipoprotein gene-knockout mice (ApoE−/− mice) each with a weight of 18 g to 25 g were purchased from Peking University Laboratory Animal Center.
Construction of AS model mice: The mice were raised to be 8 weeks old in an SPF-grade environment (room temperature: 23° C., relative humidity: 65%, and 12 h light-dark cycle) and then fed with a high-fat feed for 12 weeks to obtain the AS model mice, and then each of the AS model mice was administered. Blood vessels were collected and stained, and a proportion of a plaque area was calculated according to the following formula: AA:AA=P/PO. The data were expressed by mean±standard deviation (SD). The t-test was adopted for statistical analysis. P<0.05 indicated a significant difference. All data were analyzed by software.
Grouping and administration regimen: Blank group: Each of the mice was intraperitoneally injected with 0.2 mL of NS every two days. Control group: Each of the mice was intraperitoneally injected with a RAPA solution diluted with NS to a desired concentration (administration amount: 1.5 mg/kg) every two days. Drug group: Each of the mice was intraperitoneally injected with the RAPA composition in Example 4 at 1.5 mg/kg every two days. The administration was conducted continuously for 3 months, during which state changes in mice were observed. […]

SMILES: CO[C@H]1C[C@@H]2CC[C@@H](C)[C@@](O)(O2)C(=O)C(=O)N2CCCC[C@H]2C(=O)O[C@H]([C@H](C)C[C@@H]2CC[C@@H](O)[C@H](OC)C2)CC(=O)[C@H](C)/C=C(\C)[C@@H](O)[C@@H](OC)C(=O)[C@H](C)C[C@H](C)/C=C/C=C/C=C/1C [RAPA, rapamycin]
- plaque area/total vascular area: 48.33%±2.851%
